Laboratory results as given in patent publication US8993515B2, “Peptidomimetics comprising N-amino cyclic urea residues and uses thereof” (Valorisation-Recherche, Limited Partnership, priority 2012, dated 2015).
Residues, ends and D or L forms follow the SMILES beside them.

Experiments:
[1] = tested on: human TF-1 cells; assay: IL-1β-induced thymocyte (TF-1) proliferation, CyQUANT NF dye; format: cell-based; settings: peptide 1 μM; human IL-1β 25 ng/mL; 48 h
Description: Immune cell proliferation was assessed by DNA intercalation of CyQUANT NF® fluorescent dye (Invitrogen, Carlsbad, Calif., USA). Essentially, human TF-1 cells (CRL-2003, American Type Culture Collection) were cultured in complete RPMI 1640 (WISENT Inc., Montréal, Quebec, Canada) supplemented with human GM-CSF (2 ng/ml, PeptroTech, Rocky Hill, N.J., USA). Cells (passage 5 and at least 85% viable, as verified by trypan blue dying) were reincorporated into RPMI 1640 medium deprived of phenol red (Gibco Invitrogen®, Carlsbad, Calif., USA) and of growth factors [i.e. fetal bovine serum (FBS) and GM-CSF] for 18 h and split (5×10^3 cells in 200 μL/well) into 96-well non-adherent flat bottom culture plates (Sarstedt®, Nümbrecht, Germany). Following 15 min pre-incubation with peptide or peptidomimetic (1 μM), the cells were treated with human IL-1β (25 ng/mL, PeproTech®, Rocky Hill, N.J., USA) and re-incubated. After 48 h, the cells were centrifuged for 7 min at 300 g, reincorporated into Hank's Buffered Salt Solution (1×HBSS, 50 μL/well, Gibco Invitrogen®, Carlsbad, Calif., USA) and transferred into a 96-well polystyrene black plate (Corning Incorporated, Corning, N.Y., USA). An additional 50 μL solution made of CyQUANT NF® dye (component A, 1×) and CyQUANT NF™ delivery agent (component B, 1×) in 1×HBSS was added to the cells in each well, which were covered with aluminum foil and incubated for 45 min. Fluorescence intensity was measured using a microplate reader (Perkin Elmer Wallac Envision® 2104; Perkin Elmer®, California, USA) with excitation at 485 nm and emission detection at 530 nm (FITC 485 and FITC 531 filters, respectively). Hexaplicate experiments were repeated three times and results were analyzed by one-way analysis of variance (ANOVA) factoring for treatments, and data are presented as mean±standard error of the mean (SEM).

[2] = tested on: NF-κB activation in HEK Blue IL-33/IL-1β sensor cells; assay: HEK Blue SEAP reporter gene assay of NF-κB activation; format: cell-based; settings: peptide 1 μM; human IL-1β 2.5 ng/mL; 24 h
Description: Activation of the NF-κB pathway upon interaction with IL-1β (or IL-33) receptor complex at the membrane was assessed via HEK-Blue SEAP reporter gene assay (InvivoGen®, California, USA). Basically, HEK Blue IL-33/IL-1β sensor cells were cultured in growth medium made of complete Dulbecco's modified Eagle medium (DMEM; 4.5 g/L glucose, 2 mM L-glutamine, […], 10% fetal bovine serum, 50 U/mL penicillin, 50 μg/mL streptomycin; Gibco Invitrogen®, Ontario, Canada) supplemented with selection antibiotics (30 μg/mL Blasticidin®, 200 μg/mL HygroGold® and 100 μg/mL Zeocin®; InvivoGen, California, USA). Upon reaching almost 70% confluency, HEK Blue cells were reincorporated into complete DMEM medium and split (2.5×10^4 cells in 180 μL/well) into 96-well membrane-treated flat bottom culture plates (Plate #3595, Corning Life Sciences, Massachusetts, USA). Cells were pretreated with 10 μL of peptide or peptidomimetic (1 μM) for 15 min., after which 10 μL of human IL-1β (2.5 ng/mL, PeproTech®, Rocky Hill, N.J., USA) was added. Following 24 h of incubation, 40 μL of the cells supernatant was added to a UV-transparent 96-well plate (Plate #3635, Corning Life Sciences®, Massachusetts, USA) already filled with 160 μL of resuspended Quanti-Blue® dye (1×, InvivoGen, California, USA). The plate was covered and incubated for 20 min. The level of SEAP was measured by reading absorbance (or optical density, OD) at 620 nm using a multiplate reader equipped with a monochromator (Perkin Elmer Wallac Envision® 2104; Perkin Elmer®, California, USA). Hexaplicate results were normalized over complete DMEM background signal and analyzed by one-way analysis of variance (ANOVA) factoring for treatments, and data are presented as mean±standard error of the mean (SEM).

| Molecule | diminished IL-1β-induced proliferation [1] | inhibition of NF-κB activation (OD620) [2] |
| --- | --- | --- |
| CC(C)C[C@@H](NC(=O)[C@@H](CCC(=O)O)NC(=O)[C@@H](C(C)C)N1CCN(NC(=O)[C@@H](Cc2ccc(O)cc2)NC(=O)[C@H](N)CCCNC(=N)N)C1=O)C(=O)N[C@H](C)C(N)=O [[Nai^3]-101.10, D-Arg-D-Tyr-Nai-D-Val-D-Glu-D-Leu-D-Ala-NH2] (HELM PEPTIDE1{[dR].[dY].[CC(C)[C@H](C(=O)[*:2])N1CCN(N[*:1])C1=O].[dE].[dL].[dA].[am]}$$$$V2.0) | 77% | 65% |
| D-Arg-D-Tyr-D-Thr-D-Val-DGlu-D-Leu-D-Ala-NH2 [101.10, reference compound] | 15% | 77% |
| Kineret: a competitive IL-1R antagonist | – | 100% |
